Source: patent publication US5858684A, “Method of screening calcium receptor-active molecules” (priority 1995, dated 1999)
“Also recorded” adds a separate entry of the source. Read-outs that look alike come from different tables or passages of the source.

Legend:
[1] = molecular target: T1, human parathyroid cell calcium receptor (pHuPCaR 5.2, pHuPCaR 4.0) (Homo sapiens, UniProt P41180); assay: Cl- current in Xenopus oocytes expressing cloned human parathyroid calcium receptor; assay type: cell-based; conditions: for concentrations evoking increases in Cl- current: 0.3 mM extracellular Ca2+; for response in the absence of extracellular Ca2+: no extracellular Ca2+
T1 sequence (P41180 with tags, fused parts or gaps INS536PLTFVLSVLQ/Q926R/E1011Q): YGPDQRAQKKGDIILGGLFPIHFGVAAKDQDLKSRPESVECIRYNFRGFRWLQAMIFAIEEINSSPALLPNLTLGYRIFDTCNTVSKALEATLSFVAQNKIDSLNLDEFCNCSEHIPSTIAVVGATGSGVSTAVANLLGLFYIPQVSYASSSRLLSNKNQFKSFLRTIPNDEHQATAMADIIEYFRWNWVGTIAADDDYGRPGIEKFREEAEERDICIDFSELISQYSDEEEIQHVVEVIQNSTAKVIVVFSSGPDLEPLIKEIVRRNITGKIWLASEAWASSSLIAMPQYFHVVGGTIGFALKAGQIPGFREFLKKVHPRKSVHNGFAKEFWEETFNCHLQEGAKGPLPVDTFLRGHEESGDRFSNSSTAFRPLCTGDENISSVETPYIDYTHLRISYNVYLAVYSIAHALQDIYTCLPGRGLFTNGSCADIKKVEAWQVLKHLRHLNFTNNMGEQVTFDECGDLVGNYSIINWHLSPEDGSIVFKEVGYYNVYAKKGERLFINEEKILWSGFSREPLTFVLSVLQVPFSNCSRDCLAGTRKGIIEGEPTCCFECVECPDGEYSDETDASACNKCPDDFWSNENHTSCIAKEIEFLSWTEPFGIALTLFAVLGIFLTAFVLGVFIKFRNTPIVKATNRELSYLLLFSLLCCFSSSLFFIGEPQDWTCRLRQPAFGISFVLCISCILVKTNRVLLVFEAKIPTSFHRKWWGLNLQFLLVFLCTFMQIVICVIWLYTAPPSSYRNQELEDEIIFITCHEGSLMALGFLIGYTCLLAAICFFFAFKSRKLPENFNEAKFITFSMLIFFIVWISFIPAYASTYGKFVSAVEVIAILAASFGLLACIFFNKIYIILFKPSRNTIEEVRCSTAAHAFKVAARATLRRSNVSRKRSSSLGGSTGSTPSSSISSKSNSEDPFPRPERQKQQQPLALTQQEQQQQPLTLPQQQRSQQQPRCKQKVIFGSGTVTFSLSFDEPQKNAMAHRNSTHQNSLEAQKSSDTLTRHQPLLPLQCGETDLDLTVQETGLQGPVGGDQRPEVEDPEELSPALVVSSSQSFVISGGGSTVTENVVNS
Description: Representative cDNA inserts for both size classes were subcloned into the plasmid vector pBluescript SK. Linearization followed by in vitro transcription using T7 RNA polymerase produced cRNA transcripts. The cRNA transcripts were injected into Xenopus oocytes (150 ng/μl RNA; 50 nl/oocyte) for functional analysis. Following incubation periods of 2-4 days, the oocytes were assayed for the presence of functional calcium receptors. Both clone types gave rise to functional calcium receptors as assessed by the stimulation of calcium-activated chloride currents upon addition of appropriate calcium receptor agonists. […] Thus, both clones encode a functional, human parathyroid cell calcium receptor.
Xenopus oocytes were injected with pHuPCaR 5.2, the 5.2 Kb cDNA encoding a parathyroid cell calcium receptor derived from a human parathyroid cell adenoma. (See Example 27.) After two to three days, Cl^- currents were measured in the oocytes using a two-electrode voltage clamp.

[2] = system: parathyroid cell calcium receptor; assay type: cell-based; conditions: for response in the absence of extracellular Ca2+: Ca2+-free / absence of extracellular Ca2+
Description: For example, bovine parathyroid cells loaded with fura-2 are initially suspended in buffer containing 0.5 mM CaCl2. A test substance is added to the cuvette in a small volume (5-15 μl) and changes in the fluorescence signal are measured. Cumulative increases in the concentration of the test substance are made in the cuvette until some predetermined concentration is achieved or no further changes in fluorescence are noted.
This section describes procedures used to obtain and treat parathyroid cells from calves and humans. […] Human parathyroid glands, were obtained from patients undergoing surgical removal of parathyroid tissue for primary or uremic hyperparathyroidism (uremic HPT), and were treated similarly to bovine tissue.
Glands were trimmed of excess fat and connective tissue and then minced with fine scissors into cubes approximately 2-3 mm on a side. Dissociated parathyroid cells were prepared by collagenase digestion and then purified by centrifugation in Percoll buffer. The resultant parathyroid cell preparation was essentially devoid of red blood cells, adipocytes, and capillary tissue as assessed by phase contrast microscopy and Sudan black B staining. Dissociated and purified parathyroid cells were present as small clusters containing 5 to 20 cells.
The cells were then pelleted, resuspended in the same buffer, but lacking the ester, and incubated a further 15 minutes at 37° C. The cells were subsequently washed twice with PCB containing 0.5 mM CaCl2 and 0.5% BSA and maintained at room temperature (about 20° C.). Immediately before use, the cells were diluted five-fold with prewarmed 0.5 mM CaCl2 -PCB to obtain a final BSA concentration of 0.1%. The concentration of cells in the cuvette used for fluorescence recording was 1-2×10^6 /ml.
The fluorescence of indicator-loaded cells was measured at 37° C. in a spectrofluorimeter (Biomedical Instrumentation Group, University of Pennsylvania, Philadelphia, Pa.) equipped with a thermostated cuvette holder and magnetic stirrer using excitation and emission wavelengths of 340 and 510 nm, respectively. […] Leakage of dye is dependent on temperature and most occurs within the first 2 minutes after warming the cells in the cuvette. Dye leakage increases only very slowly thereafter. To correct the calibration for dye leakage, cells were placed in the cuvette and stirred at 37° C. for 2-3 minutes. The cell suspension was then removed, the cells pelleted, and the supernatant returned to a clean cuvette. […] This estimate was subtracted from the apparent Fmin.
Dissociated bovine parathyroid cells were purified on gradients of Percoll and cultured overnight in serum-free medium.

COc1cccc([C@@H](C)NCCCc2ccccc2)c1 (single isomer, unassigned) [NPS R-467]
activation of oocyte-expressed human receptor [1]: activated the oocyte-expressed receptor at about the same concentrations
increase in [Ca2+]i after 10 μM neomycin ([2]; 30 μM NPS R-467 after 10 μM neomycin, Ca2+-free buffer): elicited a transient increase
increase in [Ca2+]i after 100 μM neomycin ([2]; 30 μM NPS R-467 after 100 μM neomycin, Ca2+-free buffer): did not cause an increase
increase in [Ca2+]i (words) ([2]; 30 μM, Ca2+-free buffer): no increase; also recorded: did not cause any increase
increase in [Ca2+]i (words) ([2]; 0.5 mM extracellular Ca2+): rapid and transient increase
response in the absence of extracellular Ca2+ [2]: abolished; also recorded: do not cause the mobilization of intracellular
effect on responses to extracellular Ca2+ ([2]; bovine parathyroid cells): increase the sensitivity of the calcium receptor

NCCCNCCCCNCCCNCCCNCCCNC(=O)Cc1c[nH]c2ccccc12 [NPS 019]
concentrations evoking increases in Cl- current [1]: 3 to 30 µM
response in the absence of extracellular Ca2+ [1]: persisted
EC50 ([2]; bovine parathyroid cells, fura-2, read-out: EC50 PARATHYROID (Table 6)): 40 µM

COc1cccc([C@@H](C)NCCCc2ccccc2Cl)c1 [NPS R-568, (R)-(+)-N-[3-(2-chlorophenyl)propyl]-amethyl-α-3-methoxybenzylamine]
activation of oocyte-expressed human receptor [1]: activated the oocyte-expressed receptor at about the same concentrations
effect on extracellular Ca2+ concentration-response curve [1]: shifted the concentration-response curve to the left
concentrations evoking increases in Cl- current [1]: 3 to 30 µM
response in the absence of extracellular Ca2+ [1]: abolished
increase in [Ca2+]i / mobilization of intracellular Ca2+ [2]: evokes increases
response in the absence of extracellular Ca2+ [2]: fails to evoke increases; also recorded: do not cause the mobilization of intracellular
effect on responses to extracellular Ca2+ ([2]; bovine parathyroid cells): potentiate responses to extracellular; also recorded: increase the sensitivity of the calcium receptor

NC[C@@H]1O[C@H](O[C@H]2[C@@H](O)[C@H](O[C@@H]3[C@@H](O)[C@H](N)C[C@H](N)[C@H]3O[C@H]3O[C@H](CN)[C@@H](O)[C@H](O)[C@H]3N)O[C@@H]2CO)[C@H](N)[C@@H](O)[C@@H]1O [Neomycin]
increase in [Ca2+]i / mobilization of intracellular Ca2+ [2]: evoked rapid and transient increases
increase in [Ca2+]i (words) ([2]; 10 μM, Ca2+-free buffer): did not by itself cause an increase
increase in [Ca2+]i (words) ([2]; 100 μM, absence of extracellular Ca2+): evoked a rapid and transient increase
